Laboratory results published in PMC10082216 (Nature Communications, 2023).

System: healthy subjects
Assay: TD-6450 phase I clinical study (SAD/MAD): safety and tolerability
Type: in vivo, human
Description: This was a phase I, double-blinded, randomized, placebo-controlled, Single Ascending Dose (SAD) and Multiple Ascending Dose (MAD) study to evaluate the safety and tolerability of TD-6450 in healthy subjects (primary objective) and the pharmacokinetics (secondary objective). The study is available in the website clinicaltrial.gov (identifier NCT02022306), it started on February the 4th 2014 (first subject enrolled) and was concluded on August the 18th 2014 (last subject concluded), in the Healthcare Discoveries (a subsidiary of ICON Development Solutions) in San Antonio, Texas, USA. Healthy, non-smoking subjects with no history of significant medical conditions, with a BMI included between 18 and 30 kg/m^2, who weight at least 50 kg, between 18 and 60 years old, were selected for this study. Subjects were able and willing to give an informed consent. No bias was reported in the selection process. The protocol and all amendments for this study and all accompanying material that was provided to subjects (including advertisements, subject’s information sheets, and descriptions of the study used to obtain informed consent) were submitted by the investigator to the centralized Institutional Review Board (IRB), namely the IntegReview, established in 1999 at Austin (Texas, U.S.A.) and acquired by Advarra in 2020. Documented approval was obtained before the study was started, on March the 28th 2014. This study was conducted in accordance with the protocol, the principles of the International Conference on Harmonization of Technical Requirements for Registration of Pharmaceuticals for Human Use (ICH) Guideline for Good Clinical Practice (GCP), the United States Code of Federal Regulations, the principles of the World Medical Association Declaration of Helsinki, Ethical Principles for Medical Research Involving Human Subjects, and all applicable regulatory requirement.
Primary and secondary outcomes were pre-defined as follows: Safety and tolerability as a primary outcome, pharmacokinetics as a secondary outcome. Safety and tolerability were evaluated using standard measures, including adverse event (AE) monitoring, clinical laboratory tests (hematology, serum chemistry, coagulation, and urinalysis), vital signs, physical examinations, and 12-lead electrocardiograms (ECGs). […] Pharmacokinetics were evaluated by the collection of blood samples from each subject at following time points: predose (within 30 min before dosing, only in day 1 60 min before dosing), and 0.5,1,2,3,4,6,8 and 12 hours after dosing.
This study was conducted in two parts, Part A (SAD) and Part B (MAD). For the Part A, the age of enrolled subjects ranged from 20 to 60 years, with a mean age range of 32.1 to 46.2 years. Most subjects were male (73 total subjects) and most were white (55 subjects) or black (22 subjects). For Part B of the study, ages ranged from 23 to 60 years with a similar mean age across treatment groups. Most subjects were male (25 total subjects) and all were either white (18 subjects) or black (12 subjects). For each part of the study, the mean body mass index (BMI) and creatinine clearance were similar across treatment groups. […] Part A: Healthy subjects were sequentially enrolled and randomly assigned to each dose cohort (up to 10 dose-ascending cohorts were planned, including a fed arm in the food effect cohort) to receive either a single dose of TD-6450 or placebo. For each dose cohort, 8 subjects were randomized in a 3:1 ratio (6 subjects received TD-6450 and 2 subjects received placebo). The starting dose of TD-6450 was 0.5 mg with a planned maximum dose of 1000 mg. Upon review of the 500-mg cohort PK data, the decision was made to not escalate to the 1000-mg cohort because of exposure saturation at ≥ 500 mg. The following doses were administered: 0.5 mg, 1.5 mg, 5 mg, 15 mg, 30 mg, 60 mg, 120 mg, 240 mg, and 500 mg. […]

With `CNC(=O)N1C[C@@H](C)N(c2ccc(C(=O)Nc3ccc(-c4ccc(-c5c[nH]c([C@@H]6CCCN6C(=O)[C@@H](NC(=O)OC)C(C)C)n5)cc4)c(OC(F)(F)F)c3)cn2)C[C@@H]1C` [TD-6450] as the molecule, how does the “At least one AE N (%)” value (MAD 60 mg once daily 14 days) read?
Its value is 4 (50.0) N (%).

And the “At least one SAE N (%)” value (MAD 60 mg once daily 14 days)?
The value was 0 (0.0) N (%).

What about the “Death N (%)” value (MAD 60 mg once daily 14 days) of the same molecule?
The value was 0 (0.0) N (%).

What about the “Discontinuation due to an AE N (%)” value (MAD 60 mg once daily 14 days) of the same molecule?
The value was 0 (0.0) N (%).

What about the “At least one AE N (%)” value (MAD 120 mg once daily 14 days) of the same molecule?
Its value is 3 (37.5) N (%).

What about the “At least one SAE N (%)” value (MAD 120 mg once daily 14 days) of the same molecule?
The value was 0 (0.0) N (%).

What about the “Death N (%)” value (MAD 120 mg once daily 14 days) of the same molecule?
Its value is 0 (0.0) N (%).

And the “Discontinuation due to an AE N (%)” value (MAD 120 mg once daily 14 days)?
The value was 0 (0.0) N (%).

And the “At least one AE N (%)” value (MAD 240 mg once daily 14 days)?
Its value is 3 (37.5) N (%).

And the “At least one SAE N (%)” value (MAD 240 mg once daily 14 days)?
The value was 0 (0.0) N (%).

What about the “Death N (%)” value (MAD 240 mg once daily 14 days) of the same molecule?
Its value is 0 (0.0) N (%).

What about the “Discontinuation due to an AE N (%)” value (MAD 240 mg once daily 14 days) of the same molecule?
Its value is 0 (0.0) N (%).

And the “At least one AE N (%)” value (SAD 0.5 mg)?
Its value is 3 (50.0) N (%).

What about the “At least one SAE N (%)” value (SAD 0.5 mg) of the same molecule?
Its value is 0 (0.0) N (%).

What about the “Death N (%)” value (SAD 0.5 mg) of the same molecule?
The value was 0 (0.0) N (%).

What about the “Discontinuation due to an AE N (%)” value (SAD 0.5 mg) of the same molecule?
Its value is 0 (0.0) N (%).

And the “At least one AE N (%)” value (SAD 1.5 mg)?
Its value is 3 (50.0) N (%).

What about the “At least one SAE N (%)” value (SAD 1.5 mg) of the same molecule?
Its value is 0 (0.0) N (%).

And the “Death N (%)” value (SAD 1.5 mg)?
Its value is 0 (0.0) N (%).

And the “Discontinuation due to an AE N (%)” value (SAD 1.5 mg)?
The value was 0 (0.0) N (%).

And the “At least one AE N (%)” value (SAD 5 mg)?
The value was 0 (0.0) N (%).

And the “At least one SAE N (%)” value (SAD 5 mg)?
Its value is 0 (0.0) N (%).

And the “Death N (%)” value (SAD 5 mg)?
Its value is 0 (0.0) N (%).

And the “Discontinuation due to an AE N (%)” value (SAD 5 mg)?
The value was 0 (0.0) N (%).

What about the “At least one AE N (%)” value (SAD 15 mg) of the same molecule?
The value was 1 (16.7) N (%).

And the “At least one SAE N (%)” value (SAD 15 mg)?
The value was 0 (0.0) N (%).

What about the “Death N (%)” value (SAD 15 mg) of the same molecule?
The value was 0 (0.0) N (%).

And the “Discontinuation due to an AE N (%)” value (SAD 15 mg)?
Its value is 0 (0.0) N (%).

And the “At least one AE N (%)” value (SAD 30 mg)?
Its value is 1 (16.7) N (%).

And the “At least one SAE N (%)” value (SAD 30 mg)?
The value was 0 (0.0) N (%).

What about the “Death N (%)” value (SAD 30 mg) of the same molecule?
Its value is 0 (0.0) N (%).

What about the “Discontinuation due to an AE N (%)” value (SAD 30 mg) of the same molecule?
Its value is 0 (0.0) N (%).

And the “At least one AE N (%)” value (SAD 60 mg)?
The value was 0 (0.0) N (%).

And the “At least one SAE N (%)” value (SAD 60 mg)?
Its value is 0 (0.0) N (%).

And the “Death N (%)” value (SAD 60 mg)?
The value was 0 (0.0) N (%).

What about the “Discontinuation due to an AE N (%)” value (SAD 60 mg) of the same molecule?
The value was 0 (0.0) N (%).

And the “At least one AE N (%)” value (SAD 120 mg)?
Its value is 1 (16.7) N (%).

What about the “At least one SAE N (%)” value (SAD 120 mg) of the same molecule?
Its value is 0 (0.0) N (%).

And the “Death N (%)” value (SAD 120 mg)?
Its value is 0 (0.0) N (%).

And the “Discontinuation due to an AE N (%)” value (SAD 120 mg)?
Its value is 0 (0.0) N (%).

What about the “At least one AE N (%)” value (SAD 240 mg) of the same molecule?
The value was 0 (0.0) N (%).

What about the “At least one SAE N (%)” value (SAD 240 mg) of the same molecule?
The value was 0 (0.0) N (%).

What about the “Death N (%)” value (SAD 240 mg) of the same molecule?
The value was 0 (0.0) N (%).

And the “Discontinuation due to an AE N (%)” value (SAD 240 mg)?
Its value is 0 (0.0) N (%).

And the “At least one AE N (%)” value (SAD 500 mg)?
The value was 2 (33.3) N (%).

And the “At least one SAE N (%)” value (SAD 500 mg)?
The value was 0 (0.0) N (%).

And the “Death N (%)” value (SAD 500 mg)?
Its value is 0 (0.0) N (%).

And the “Discontinuation due to an AE N (%)” value (SAD 500 mg)?
The value was 0 (0.0) N (%).

And the “severe adverse events in Phase 1 study” value (single or multiple doses)?
The value was “no severe adverse events”.
